# In patent US9328369B2, “Process for production of useful substance, and surfactant for use in the process” (priority 2009, dated 2016):
# Assays:
# Escherichia coli (β) [1] = experiment: Screening of secretion efficiency, TorA expressing strain; assay type: cell-based; settings: surfactant 1 wt %; 37° C., 1 hour; ELISA, anti-His-tag antibody
# Excerpt: A torA gene of an Escherichia coli strain W3110 was amplified by the PCR method using primers 3 and 4 (Table 4). After being treated with restriction enzymes NdeI and BamHI, a PCR fragment was bound to an NdeI restriction enzyme site and a BamHI restriction enzyme site of a pET-22b plasmid (product of Novagen). Then, the plasmid was transformed into an AG1 (DE3) Escherichia coli strain to form a TorA expressing strain (β). Localization of the expressed TorA in a periplasmic fraction was confirmed by conducting an analysis based on the method disclosed in page 121 of Vol. 353 of METHODS IN ENZYMOLOGY (2002).
# A pdxA gene of an Escherichia coli strain W3110 was amplified by the PCR method using primers 5 and 6 (Table 4). After being treated with restriction enzymes NdeI and BamHI, a PCR fragment was bound to an NdeI restriction enzyme site and a BamHI restriction enzyme site of a pET-22b plasmid (product of Novagen). Then, the plasmid was transformed into an AG1 (DE3) Escherichia coli strain to form a PdxA expressing strain (γ). Localization of the expressed PdxA in a cytoplasmic compartment was confirmed by conducting an analysis based on the method disclosed in page 121 of Vol. 353 of METHODS IN ENZYMOLOGY (2002). […]
# (4) Then, the solution was allowed to stand at 37° C. for 1 hour. […] Here, the quantification of the recombinant protein in the resulting solution was carried out by ELISA assay with use of an anti-His-tag antibody. The sample prior to the centrifugation in the process (3) was treated with ultrasonic waves (200 W, 10 minutes) and the quantification of the recombinant protein therein was similarly carried out by ELISA assay with use of an anti-His-tag antibody. The ratio of lysed bacteria was obtained with use of Escherichia coli (γ), and the secretion efficiencies of the recombinant proteins of Escherichia coli (α) and (β) were calculated by using the following formula. […]
# “Z” represents the ratio of lysed bacteria obtained with use of Escherichia coli (γ), which is determined by the following formula: Z=Z1/Z2. […]
# Escherichia coli (β) [2] = experiment: Shake culture with surfactant, time course of protein production (Example 1, FIG. 1); assay type: cell-based; settings: surfactant 1%; after 21 hours from the initiation
# Protocol: Escherichia coli (β) was inoculated in 10 mL of an LB culture medium and was shake-cultured at 37° C. overnight. In this manner, a culture solution was prepared. The strains were collected using a centrifuge and the collected Escherichia coli (β) strain was resuspended in 10 ml of a TB culture medium (product of Difco). Shake culture at 37° C. induced expression of torA. Sampling was performed after 0, 0.5, 1, and 2 hours from the start of the shake culture, and harvesting using a centrifuge was carried out for each sampled solution. Collected bacterial cells were suspended in a buffer solution (50 mM Tris (pH 7.5), 100 mM NaCl) and ultrasonic fragmentation was performed (200 W, 10 minutes). Then, an SDS-PAGE analysis was performed to quantify the produced recombinant protein band. Based on the obtained data, the protein amount per gram of the bacterial cell was calculated and a graph was constructed.
# The same processes were carried out as in Comparative Example 1 except that the surfactant A-7 was used as the surfactant (A) for the expression induction in an amount of 1% on the basis of the weight of the culture solution, and that sampling was performed after 0, 2, 4, 15, 19, and 21 hours from the initiation and analysis was performed on the supernatants of the centrifuged samples. A graph was similarly constructed.
Substance,Secretion efficiency (%) Escherichia coli (β) (Escherichia coli (β) [1]),Dried cell density of the culture solution (Escherichia coli (β) [2])
Polyoxyethylene(3 mol)tridecyl ether sodium acetate [A-1],98.2%,–
Cured palm oil fatty acid amidopropyl dimethyl aminoacetate betaine [A-6],85.4%,–
Sodium cocaminopropionate [A-7],–,1.72 g/L
